Laboratory results as given in patent US12589099B2 (priority 2021, dated 2026).

What was measured:
[1] = test system: moderate traumatic brain injury (TBI) induced by controlled cortical impact (CCI); experiment: Right forelimb adhesive removal test after TBI; type: in vivo, male Wistar rats
Description: FIG. 2: The figure illustrates functional tests that are carried out on healthy (sham surgery) no treatment, vehicle treated and ALPHA-1062 treated rats to assess sensorimotor and cognitive function after TBI. Sensimotor function tests. a) The figure depicts tests to assess the modified neurological severity score (mNSS). […] The animal is required to balance over a grid and the frequency of steps missing the grid are counted. This test assesses the functionality of the injured parietal cortex of the rat's brain. c) The adhesive removal test consists of applying adhesive tape on each forepaw of the animal and measuring the time-to-contact and the time-to-remove them. This behavior requires correct paw and mouth sensitivity (time-to-contact) and correct dexterity (time-to-remove). Cognitive function tests: a) This picture illustrates the Morris water maze that comprises that a rat is placed in a large circular pool (picture on the left) and is required to find an invisible platform that allows it to escape the water by using various visuo-spatial cues. This test is used to study spatial learning and memory and assesses hippocampal and select cortical brain region function. Usually, the path of the rat through the pool is tracked (picture on the right) and the time spend in the proximity of the platform as well as the time needed until the platform is found by the rat are measured. b) For the new/novel object recognition (NOR) test, after a habituation time in the test space (picture on far left) rats are given the opportunity to explore two identical objects (A) for a predetermined period of time (picture in the middle). After a delay, the animals are then presented with two objects to explore, one of which is the same as in the first exploration trial (A), the other a new object (B) (picture on the right). Depending on the length of the delay between the two trials or depending on the extend of cortical damage, the rats will either explore the novel object for a greater time period, indicating memory for the familiar object, or will explore the novel and familiar objects for the same amount of time, indicating a lack of recall or loss of memory for the familiar object presented during the initial trial.
Young adult (2-3 months) male Wistar rats were subjected to a moderate traumatic brain injury (TBI) induced by controlled cortical impact (CCI). […]
In the adhesive removal test, an adhesive tape is applied to the right forepaw of an animal. Both the time-to-contact the adhesive (sensory perception), as well as the time-to-remove the adhesive (locomotor skill) are assessed by this test.

[2] = test system: pathological p-Tau (AT8); experiment: p-Tau (AT8) immunostaining 35 days post-TBI; type: in vivo, male Wistar rats; conditions: 4.5 mg/kg IN twice daily, cortex, DG, CA3, CA1 of ipsilateral hemisphere
Excerpt: Young adult (2-3 months) male Wistar rats were subjected to a moderate traumatic brain injury (TBI) induced by controlled cortical impact (CCI). Animal models of TBI including the CCI model and functional tests have been described in detail in peer reviewed publications (Xiong et al., 2013, Nat Rev Neurosci.; Zhang et al., 2016, J Neurosurg.; Zhang et al., 2016, Neurochem Int.; Zhang et al., 2021, J Neurotrauma). Injury consisted of a single impact at 4.0 m/sec, 2.5 mm deformation to the left parietal cortex. In addition, a group of animals was left healthy/not injured to serve as a healthy control.
The substance used in this study was ALPHA-1062 at 4.5 mg/kg. […]
Histological assessment was performed including quantitative image analysis protocols; followed by statistical analysis of the data. […]
For cell counting and quantitation NeuN+ cells were examined in the ipsilateral cortex, DG, CA1, and CA3 regions of the ipsilateral hippocampus. […] The number of BrdU+ cells (red-fluorophore) and NeuN (green-fluorophore)/BrdU-colabeled cells (yellow after merge) were counted. […] The immune-positive cells were determined and divided by the measured areas and presented as numbers per square mm. […] Tau or p-Tau immunoreactive areas including cortex, dentate gyrus, CA3 and CA1 regions of the ipsilateral hemisphere were imaged and quantified by Image J software (NIH).

Which “adhesive removal (right forelimb) compared to vehicle” value ([1]; 4.5 mg/kg IN twice daily, from day 7 (D7) on (FIG. 6)) does the source give for `COc1ccc2c3c1O[C@H]1C[C@@H](OC(=O)c4ccccc4)C=C[C@@]31CCN(C)C2` [ALPHA-1062, (4aS,6R,8aS)-5,6,9,10,11,12-hexahydro-3-methoxy-11-methyl-4aH-[1]benzofuro[3a,3,2-ef][2]benzazepin-6-ol benzoate] here?
The value was “significantly better”.

And the “adhesive removal (right forelimb) compared to uninjured (sham) animals” value ([1]; 4.5 mg/kg IN twice daily, starting on day 7 (D7), remainder of study)?
Its value is “as well as the uninjured (sham) animals”.

What about the “Adhesive Removal, performance over SHAM” value ([1]; rats after TBI, compared to healthy sham animals) of the same compound?
Its value is “equivalent to”.

And the “Adhesive Removal, performance over VEHICLE” value ([1]; rats after TBI, compared to vehicle treatment)?
The value was “superior”.

And the “levels of p-Tau compared to vehicle controls” value [2]?
Its value is “significantly reduced levels of p-Tau”.
